Source: patent US11787837B2, “DCHBS-active esters of PEG compounds and their use” (Novo Nordisk A/S, priority 2016, dated 2023)

Assay: Hydrolytic stability of activated side chains (hydrolysis at pH ~10.3, UPLC/HPLC area comparison at 210 nm)
Format: physicochemical
Conditions: for hydrolytic stability (in words): basic conditions, pH 10.3; for activated side chain still remaining: pH 10.3, hydrolysis times around 1100-1300 minutes
Protocol: 0.1 mmol of each activated side chain was dissolved in 1.0 mL NMP. To this solution was added 5 mL 1M NaHCO3 buffer solution adjusted to pH 10.0 with NaOH. Solution was stirred (pH ˜10.3) with aliquots being taken at different time intervals to determine to which extent the various activated side chains were hydrolysed.
The reaction mixtures were analysed by UPLC (Example no. 2 and E—UPLC_A_1) and HPLC (Example no. 1, B, C, and D—HPLC_A_1), and the percent of hydrolysis for the various side chains was estimated by area comparison in UV detection at 210 nm. In each example, the combined areas for released activation group (peak A) and non-activated side chain (peak B), was compared to area for activated side chain (peak C). The retention times (rt-A, rt-B, and rt-C for the various peaks (peak A, peak B, and peak C) for each side chain are summarised as follows; 1 (rt-A=1.94 min, rt-B=7.18-7.25 min, rt-C=7.48 min, HPLC_A_1), 2 (rt-A=0.48 min, rt-B=2.11 min, rt-C=2.29 min, UPLC_A_1), B (only rt-B detected at time point for analysis), C (rt-A=4.40 min, rt-B=7.25 min, HPLC_A_1), D (rt-A=4.01 min, rt-B=7.25 min, rt-C=10.16 min, HPLC_A_1), E (rt-A=2.08 min, rt-B=2.10 min, rt-C=2.10 min, UPLC_A_1).
The hydrolytic stability of the activated side chains of Examples 1 and 8B to 8D was tested. The hydrolysis protocol from Example 9 was used for the stability test.

[1] = Table 5, hydrolysis time 1380 min, method UPLC_A_4

## O=C(O)CCCCCCCCCCCCCCCCCCC(=O)NC[C@H]1CC[C@H](C(=O)N[C@@H](CCC(=O)NCCOCCOCC(=O)NCCOCCOCC(=O)Oc2c(Cl)cc(Cl)cc2S(=O)(=O)O)C(=O)O)CC1 [Example 1, 20-[[4-[[(1S)-1-carboxy-4-[2-[2-[2-[2-[2-[2-(2,4-dichloro-6-sulfo-phenoxy)-2-oxo-ethoxy]ethoxy]ethylamino]-2-oxo-ethoxy]ethoxy]ethylamino]-4-oxo-butyl]carbamoyl]cyclohexyl]methylamino]-20-oxo-icosanoic acid]
Table 5, hydrolysis time 1269 min, method UPLC_A_1
  Hydrolysis (%) at pH 10.3: 88.1%
  hydrolytic stability (in words): much more stable against hydrolysis
  activated side chain still remaining: approximately 12%
Hydrolysis time 1269 min, NMP + 1M NaHCO3 buffer, pH ~10.3, HPLC_A_1
  Hydrolysis (%) at pH 10.3: 88.1%

## C#CCOCCOCCOCCOCCC(=O)Oc1c(Cl)cc(Cl)cc1S(=O)(=O)O [Example 8D, 3,5-dichloro-2-[3-[2-[2-(2-prop-2-ynoxyethoxy)ethoxy]ethoxy]propanoyloxy]benzenesulfonic acid]
Table 5, hydrolysis time 1440 min, method UPLC_A_5
  Hydrolysis (%) at pH 10.3: 67%

## O=C(O)CCCCCCCCCCCCCCCCCCC(=O)NC[C@H]1CC[C@H](C(=O)N[C@@H](CCC(=O)NCCOCCOCC(=O)NCCOCCOCC(=O)Oc2ccc(Cl)cc2Cl)C(=O)O)CC1 [Example C, 20-[[4-[[(1S)-1-carboxy-4-[2-[2-[2-[2-[2-[2-(2,4-dichlorophenoxy)-2-oxo-ethoxy]ethoxy]ethylamino]-2-oxo-ethoxy]ethoxy]ethylamino]-4-oxo-butyl]carbamoyl]cyclohexyl]methylamino]-20-oxo-icosanoic acid, reference compound]
  hydrolytic stability (in words): hydrolyse very fast and almost quantitatively
Hydrolysis time 0.16 min, NMP + 1M NaHCO3 buffer, pH ~10.3, HPLC_A_1
  Hydrolysis (%) at pH 10.3: Quantitative (more than 99% of the side chain being hydrolysed)

## O=C(O)CCCCCCCCCCCCCCCCC(=O)N[C@@H](CCC(=O)NCCOCCOCC(=O)NCCOCCOCC(=O)Oc1c(Cl)cc(S(=O)(=O)O)cc1Cl)C(=O)O [Example E, 18-[[(1S)-1-carboxy-4-[2-[2-[2-[2-[2-[2-(2,6-dichloro-4-sulfo-phenoxy)-2-oxo-ethoxy]ethoxy]ethylamino]-2-oxo-ethoxy]ethoxy]ethylamino]-4-oxo-butyl]amino]-18-oxo-octadecanoic acid, reference compound]
Hydrolysis time 2.5 min, NMP + 1M NaHCO3 buffer, pH ~10.3, UPLC_A_1
  Hydrolysis (%) at pH 10.3: Quantitative (more than 99% of the side chain being hydrolysed)

## CN(C)S(=O)(=O)c1cc(Cl)cc(Cl)c1OC(=O)COCCOCCNC(=O)COCCOCCNC(=O)CC[C@H](NC(=O)CCCCCCCCCCCCCCCCC(=O)O)C(=O)O [Example 8C]
[1]
  Hydrolysis (%) at pH 10.3: 60%

## O=C(O)CCCCCCCCCCCCCCCCCCC(=O)NC[C@H]1CC[C@H](C(=O)N[C@@H](CCC(=O)NCCOCCOCC(=O)NCCOCCOCC(=O)Oc2c(Cl)cccc2Cl)C(=O)O)CC1 [Example D, 20-[[4-[[(1S)-1-carboxy-4-[2-[2-[2-[2-[2-[2-(2,6-dichlorophenoxy)-2-oxo-ethoxy]ethoxy]ethylamino]-2-oxo-ethoxy]ethoxy]ethylamino]-4-oxo-butyl]carbamoyl]cyclohexyl]methylamino]-20-oxo-icosanoic acid, reference compound]
  hydrolytic stability (in words): hydrolyse very fast and almost quantitatively
Hydrolysis time 2 min, NMP + 1M NaHCO3 buffer, pH ~10.3, HPLC_A_1
  Hydrolysis (%) at pH 10.3: 93.4%

## COCC(=O)Oc1c(Cl)cc(Cl)cc1S(=O)(=O)O [Example 8B, 3,5-dichloro-2-(2-methoxyacetyl)oxy-benzenesulfonic acid]
[1]
  Hydrolysis (%) at pH 10.3: 96%

## O=C(O)CCCCCCCCCCCCCCCCC(=O)N[C@@H](CCC(=O)NCCOCCOCC(=O)NCCOCCOCC(=O)Oc1c(Cl)cc(Cl)cc1S(=O)(=O)O)C(=O)O [Example 2, 18-[[(1S)-1-carboxy-4-[2-[2-[2-[2-[2-[2-(2,4-dichloro-6-sulfo-phenoxy)-2-oxo-ethoxy]ethoxy]ethylamino]-2-oxo-ethoxy]ethoxy]ethylamino]-4-oxo-butyl]amino]-18-oxo-octadecanoic acid]
  hydrolytic stability (in words): much more stable against hydrolysis
  activated side chain still remaining: approximately 12%
Hydrolysis time 1070 min, NMP + 1M NaHCO3 buffer, pH ~10.3, UPLC_A_1
  Hydrolysis (%) at pH 10.3: 88.1%

## O=C(O)CCCCCCCCCCCCCCCCCCC(=O)NC[C@H]1CC[C@H](C(=O)N[C@@H](CCC(=O)NCCOCCOCC(=O)NCCOCCOCC(=O)ON2C(=O)CCC2=O)C(=O)O)CC1 [Example B, 20-[[4-[[(1S)-1-carboxy-4-[2-[2-[2-[2-[2-[2-(2,5-dioxopyrrolidin-1-yl)oxy-2-oxo-ethoxy]ethoxy]ethylamino]-2-oxo-ethoxy]ethoxy]ethylamino]-4-oxo-butyl]carbamoyl]cyclohexyl]methylamino]-20-oxo-icosanoic acid, reference compound]
  hydrolytic stability (in words): hydrolytically very unstable
Hydrolysis time 0 min (within a minute), NMP + 1M NaHCO3 buffer, pH ~10.3, HPLC_A_1
  Hydrolysis (%) at pH 10.3: Quantitative (more than 99% of the side chain being hydrolysed)
